Results published in US8147891B2, “Use of an acaricidal powder” (SOLVAY (Societe Anonyme), priority 2002, dated 2012).
Read-outs that look alike come from different tables or passages of the source.

How the values were obtained:
Acarus siro = conditions: after 48 hours; 10 g powder, 50 mites, mean of 3 samples
Text: (§1) 10 g of sodium bicarbonate powder having a particle size such that 100% of the particles have a diameter of less than 160μ, and at least 95% have a diameter of less than 100μ, were placed at the bottom of a Petri dish. 50 “Acarus siro” wheat mites were then placed on the powder.

Tyrophagus putrescentiae = conditions: after 24 hours; 10 g powder, 50 mites
Procedure: as §1
The procedure was carried out as for Example 1, except that “Tyrophagus putrescentiae” cheese mites were used.

Rhizopertha dominica = conditions: 10 g powder, 50 insects
Text: In this example, a powder comprising 96% of sodium bicarbonate and 4% of amorphous precipitated fumed silica (Aerosil® 200 produced by Degussa) was used. The powder has a particle size such that 100% of the particles have a diameter of less than 160μ and at least 95% have a diameter of less than 100μ.
(§2) 10 g of powder were placed at the bottom of a Petri dish. 50 “lesser grain borer” insects (Rhizopertha dominica) were then placed on the powder, along with sufficient food to ensure survival for 15 days.
In Examples 4 and 5, the procedure was carried out as in Example 3, except that, in Example 4, a powder consisting essentially of sodium bicarbonate was used and, in Example 5, a powder consisting essentially of silica (silica gel) was used.

Sitophilus granarius = test system: Sitophilus granarius
Text: as §2
The effect of various silicas and of a mixture of diatomaceous earth supplemented with 10% of silica gel was also compared.

In the case of `O=C([O-])O.[Na+]` [Sodium bicarbonate, sodium bicarbonate], the “death of the acarids” value (Acarus siro) is reported as 95%, the “death of the acarids” value (Tyrophagus putrescentiae) is reported as 100% and the “% mortality” value (Rhizopertha dominica; 48 h) is reported as 2%. The “% mortality” value (Rhizopertha dominica; 72 h) was 8%, the “% mortality” value (Rhizopertha dominica; 4 days) was 15% and the “% mortality” value (Rhizopertha dominica; 7 days) was 21%. For the same compound, the “% mortality” value (Rhizopertha dominica; 10 days) was 43%, the “% mortality” value (Rhizopertha dominica; 15 days) was 91% and the “% mortality” value (Sitophilus granarius; 24 h) was 0%. For the same compound, the “% mortality” value (Sitophilus granarius; 48 h) was 0%, the “% mortality” value (Sitophilus granarius; 72 h) was 1% and the “% mortality” value (Sitophilus granarius; 4 days) was 5%. For the same compound, the “% mortality” value (Sitophilus granarius; 7 days) was 9%, the “% mortality” value (Sitophilus granarius; 10 days) was 55% and the “% mortality” value (Sitophilus granarius; 15 days) was 100%.
